Measured values published in US9670231B2, “Fused tricyclic amide compounds as multiple kinase inhibitors” (BEIGENE, LTD., priority 2013, dated 2017).

Assays:
Format in all cases: biochemical
wild type B-Raf = wild type B-Raf (Homo sapiens (Human), UniProt P15056); assay: WT BRaf IC50 assay, TR-FRET; settings: Km ATP ([…] ATP); read-out: IC50 Braf-WT Km ATP
Method: WT BRaf IC50 Assay Protocol
Compounds disclosed herein were tested against wild type B-Raf (PV3848, from Invitrogen) in a time-resolved fluorescence energy transfer assay. […] The enzyme was incubated with the compounds disclosed herein at room temperature for 120 minutes and the reactions were initiated by the addition of ATP and GST-MEK1. After incubating at room temperature for 60 minutes, an equal volume of stop buffer containing 25 mM Tris pH7.4, 400 mM KF, 50 mM EDTA, 0.1% BSA, 0.01% Triton X-100, 1 test of Eu3+Cryptate-conjugated rabbit polyclonal antibody anti-Phospho MEK1/2 (Ser217/221) and 1 test of d2-conjugated mouse monoclonal antibody anti-glutathione S-transferase was added to stop the reactions. Plates were sealed and incubated at room temperature for 1.5 hours, and then the TR-FRET signals were read on BMG PHERAstar FS instrument. The IC50 for each compound was calculated by non linear regression by Graphpad Prism software.

B-Raf (V600E) = B-Raf (V600E) (Homo sapiens (Human), UniProt P15056, V600E); assay: Raf IC50 assay, TR-FRET, B-Raf (V600E); settings: 0.1 mM ATP; read-out: IC50 BRAF-V600E
Chain of B-Raf (V600E) (P15056 whole entry V600E, the tested form may be a part): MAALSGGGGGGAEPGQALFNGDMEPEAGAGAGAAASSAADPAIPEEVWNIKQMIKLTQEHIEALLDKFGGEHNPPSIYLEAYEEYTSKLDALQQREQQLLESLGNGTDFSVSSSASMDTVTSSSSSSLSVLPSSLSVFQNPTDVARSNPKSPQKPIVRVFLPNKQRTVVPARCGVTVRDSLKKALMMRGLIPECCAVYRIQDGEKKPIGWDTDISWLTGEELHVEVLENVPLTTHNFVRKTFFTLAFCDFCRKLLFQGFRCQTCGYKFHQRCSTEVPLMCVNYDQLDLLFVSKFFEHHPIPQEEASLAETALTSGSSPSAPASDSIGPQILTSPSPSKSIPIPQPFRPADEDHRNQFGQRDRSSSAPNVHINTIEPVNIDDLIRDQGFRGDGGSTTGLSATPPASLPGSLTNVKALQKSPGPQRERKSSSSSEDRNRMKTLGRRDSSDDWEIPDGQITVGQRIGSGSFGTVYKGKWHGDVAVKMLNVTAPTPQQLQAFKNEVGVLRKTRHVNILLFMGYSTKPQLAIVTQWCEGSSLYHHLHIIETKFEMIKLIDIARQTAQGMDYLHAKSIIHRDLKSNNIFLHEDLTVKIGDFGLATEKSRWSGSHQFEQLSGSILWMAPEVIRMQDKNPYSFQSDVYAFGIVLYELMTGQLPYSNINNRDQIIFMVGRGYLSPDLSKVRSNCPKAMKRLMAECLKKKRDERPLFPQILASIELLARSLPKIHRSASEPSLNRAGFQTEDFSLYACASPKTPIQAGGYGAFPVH

[1] = target: EGFR T790M/L858R kinase domain (Homo sapiens (Human), UniProt P00533, L858R/T790M); assay: EGFR enzymatic assay, TR-FRET, EGFR T790M/L858R
Chain of EGFR T790M/L858R kinase domain (P00533 669-1210 T790M/L858R): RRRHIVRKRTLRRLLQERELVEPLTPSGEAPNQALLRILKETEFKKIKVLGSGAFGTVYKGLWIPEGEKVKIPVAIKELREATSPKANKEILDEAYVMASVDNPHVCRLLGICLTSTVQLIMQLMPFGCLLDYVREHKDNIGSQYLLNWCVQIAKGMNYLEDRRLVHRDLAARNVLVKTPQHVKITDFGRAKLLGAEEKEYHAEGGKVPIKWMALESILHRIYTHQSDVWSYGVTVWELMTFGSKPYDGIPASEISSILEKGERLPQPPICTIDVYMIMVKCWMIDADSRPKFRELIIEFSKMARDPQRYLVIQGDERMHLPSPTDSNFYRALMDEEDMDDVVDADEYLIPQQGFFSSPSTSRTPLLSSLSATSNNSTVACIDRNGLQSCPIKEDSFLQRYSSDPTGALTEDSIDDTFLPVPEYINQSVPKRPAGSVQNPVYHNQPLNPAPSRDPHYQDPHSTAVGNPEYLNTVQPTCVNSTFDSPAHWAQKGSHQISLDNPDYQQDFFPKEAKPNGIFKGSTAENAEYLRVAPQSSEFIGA

WT EGFR kinase domain = WT EGFR kinase domain (Homo sapiens (Human), UniProt P00533); assay: EGFR enzymatic assay, TR-FRET, WT EGFR
Chain of WT EGFR kinase domain (P00533 669-1210): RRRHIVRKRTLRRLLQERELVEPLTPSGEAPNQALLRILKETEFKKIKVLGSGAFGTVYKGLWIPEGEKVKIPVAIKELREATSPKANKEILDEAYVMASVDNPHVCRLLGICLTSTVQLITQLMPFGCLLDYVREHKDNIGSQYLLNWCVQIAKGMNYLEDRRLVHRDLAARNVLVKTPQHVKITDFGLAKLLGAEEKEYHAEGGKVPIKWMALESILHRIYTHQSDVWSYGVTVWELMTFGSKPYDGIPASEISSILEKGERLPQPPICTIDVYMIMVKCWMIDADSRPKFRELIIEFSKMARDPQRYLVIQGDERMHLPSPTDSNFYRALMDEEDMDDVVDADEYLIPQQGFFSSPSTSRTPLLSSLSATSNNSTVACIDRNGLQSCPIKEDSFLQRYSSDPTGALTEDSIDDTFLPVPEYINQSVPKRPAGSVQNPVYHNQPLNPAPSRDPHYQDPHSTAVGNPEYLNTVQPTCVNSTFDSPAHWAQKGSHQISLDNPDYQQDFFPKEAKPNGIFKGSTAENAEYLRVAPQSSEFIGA

EGFR L858R kinase domain = EGFR L858R kinase domain (Homo sapiens (Human), UniProt P00533, L858R); assay: EGFR enzymatic assay, TR-FRET, EGFR L858R
Chain of EGFR L858R kinase domain (P00533 669-1210 L858R): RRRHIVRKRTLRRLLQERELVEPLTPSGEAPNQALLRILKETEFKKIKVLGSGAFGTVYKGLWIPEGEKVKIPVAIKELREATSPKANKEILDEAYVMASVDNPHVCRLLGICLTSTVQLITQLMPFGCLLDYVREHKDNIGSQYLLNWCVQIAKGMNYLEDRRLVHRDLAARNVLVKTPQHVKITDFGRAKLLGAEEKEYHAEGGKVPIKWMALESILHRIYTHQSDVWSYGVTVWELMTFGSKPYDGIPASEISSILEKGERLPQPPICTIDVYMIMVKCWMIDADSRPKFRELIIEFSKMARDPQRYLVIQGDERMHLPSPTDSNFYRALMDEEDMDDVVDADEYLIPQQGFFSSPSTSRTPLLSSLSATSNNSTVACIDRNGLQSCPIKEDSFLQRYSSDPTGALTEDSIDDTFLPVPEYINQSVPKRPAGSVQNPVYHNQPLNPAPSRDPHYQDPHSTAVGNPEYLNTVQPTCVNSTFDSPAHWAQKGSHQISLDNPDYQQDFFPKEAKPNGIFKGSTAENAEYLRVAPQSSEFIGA

C-Raf (Y340D/Y341D) = C-Raf (Y340D/Y341D) (Homo sapiens (Human), UniProt P04049, Y340D/Y341D); assay: Raf IC50 assay, TR-FRET, C-Raf (Y340D/Y341D); settings: 0.1 mM ATP
Chain of C-Raf (Y340D/Y341D) (P04049 whole entry Y340D/Y341D): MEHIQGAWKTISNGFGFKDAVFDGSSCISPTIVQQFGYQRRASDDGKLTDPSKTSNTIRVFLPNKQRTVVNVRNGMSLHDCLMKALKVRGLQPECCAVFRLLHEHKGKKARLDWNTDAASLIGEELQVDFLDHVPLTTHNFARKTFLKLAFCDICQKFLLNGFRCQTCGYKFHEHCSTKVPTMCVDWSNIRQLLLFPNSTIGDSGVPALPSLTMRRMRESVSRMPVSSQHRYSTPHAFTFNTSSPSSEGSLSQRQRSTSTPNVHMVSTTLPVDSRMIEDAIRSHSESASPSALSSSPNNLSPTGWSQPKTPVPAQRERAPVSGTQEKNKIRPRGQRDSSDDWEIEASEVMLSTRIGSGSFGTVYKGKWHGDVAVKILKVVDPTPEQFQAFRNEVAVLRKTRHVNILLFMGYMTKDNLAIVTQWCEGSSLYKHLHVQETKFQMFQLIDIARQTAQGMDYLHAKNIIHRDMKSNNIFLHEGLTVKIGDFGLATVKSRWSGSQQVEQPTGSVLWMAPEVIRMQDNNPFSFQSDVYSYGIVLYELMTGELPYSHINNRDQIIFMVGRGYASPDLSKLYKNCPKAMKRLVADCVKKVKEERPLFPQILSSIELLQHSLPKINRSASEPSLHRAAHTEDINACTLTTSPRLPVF
Method: Compounds disclosed herein were tested against B-Raf (V600E) (PV3849, from Invitrogen) or C-Raf (Y340D/Y341D) (PV3805, from Invitrogen) in a time-resolved fluorescence energy transfer assay. The assay was carried out in reactions (10 μL) containing 0.0625 nM B-Raf or 0.5 nM C-Raf, 25 mM Tris pH7.4, 10 mM MgCl2, 0.5 mM EGTA, 0.5 mM Na3VO4, 5 mM beta-glycerophosphate, 0.01% Triton X-100, 2.5 mM DTT, 0.1% BSA, 0.1 mM ATP, 13.7 nM GST-tagged MEK1 (Full-length protein with K97R mutation, recombinant protein purified from bacterial expression system) and 0-5 μM compounds disclosed herein (final concentration of 1% DMSO). The enzyme was incubated with the compounds disclosed herein at room temperature for 60 minutes and the reactions were initiated by the addition of ATP and GST-MEK1. After reaction at room temperature for 60 minutes, an equal volume of stop/detection solution was added according to the manufacture's instruction (CisBio Bioassays). The stop/detection solution contained Eu^3+ cryptate-conjugated anti-phospho MEK1/2 (Ser217/221) rabbit polyclonal antibody and d2-conjugated anti-GST mouse monoclonal antibody in buffer containing 25 mM Tris pH7.4, 400 mM KF, 50 mM EDTA, 0.01% BSA and 0.01% Triton X-100. Plates were sealed and incubated at room temperature for 2 hours, and the TR-FRET signals (ratio of fluorescence emission at 665 nm over emission at 620 nm with excitation at 337 nm wavelength) were recorded on a PHERAstar FS plate reader (BMG Labtech). Phosphorylation of MEK1 led to the binding of anti-phospho-MEK1/2 antibody to GST-MEK1 protein that place fluorescent donor (Eu^3+ crypate) in close proximity to the accepter d2 on the anti-GST antibody, thus resulting in a high degree of fluorescence resonance energy transfer from the donor fluorophore (at 620 nm) to the acceptor fluorophore (at 665 nm). […] The IC50 for each compound was derived from fitting the dose-response % inhibition data to the four-parameter logistic model by Graphpad Prism software.

Chain of wild type B-Raf (P15056 whole entry): as the sequence (P15056 whole entry V600E, the tested form may be a part) above, with E600V counted along it

IC50 (wild type B-Raf) [nM]	IC50 (B-Raf (V600E)) [nM]	IC50 [1] [nM]	IC50 (WT EGFR kinase domain) [nM]	IC50 (EGFR L858R kinase domain) [nM]	IC50 (C-Raf (Y340D/Y341D)) [nM]	Compound
15	16	0.25	1.8	0.38	2.3	CCN1CCN(Cc2ccc(C(=O)N[C@@H]3[C@H]4Oc5ccc(Oc6ccnc7c6COC(=O)N7)cc5[C@@H]34)cc2C(F)(F)F)CC1 [Compound 2.1, 4-((4-ethylpiperazin-1-yl)methyl)-N-((1S,1aS,6bS)-5-((2-oxo-2,4-dihydro-1H-pyrido[2,3-d][1,3]oxazin-5-yl)oxy)-1a,6b-dihydro-1H-cyclopropa[b]benzofuran-1-yl)-3-(trifluoromethyl)benzamide]
4.4	4.1	38	13	11	0.34	CC(C)(C#N)c1cccc(C(=O)N[C@@H]2[C@H]3Oc4ccc(Oc5ccnc6c5CCC(=O)N6)cc4[C@@H]23)c1 [Compound 1.43]
35	16	293	774	146	0.47	CCN1CCN(Cc2ccc(C(=O)N[C@H]3[C@@H]4Oc5ccc(Oc6ccnc7c6CCC(=O)N7)cc5[C@H]34)cc2C(F)(F)F)CC1 [Compound 1.33, 4-((4-ethylpiperazin-1-yl)methyl)-N-((1R,1aR,6bR)-5-((7-oxo-5,6,7,8-tetrahydro-1,8-naphthyridin-4-yl)oxy)-1a,6b-dihydro-1H-cyclopropa [b]benzofuran-1-yl)-3-(trifluoromethyl)benzamide]
10	15	1.9	0.99	0.44	0.78	CN(C)[C@@H]1CCCN(Cc2ccc(C(=O)N[C@@H]3[C@H]4Oc5ccc(Oc6ccnc7c6CCC(=O)N7)cc5[C@@H]34)cc2C(F)(F)F)C1 [Compound 1.31, 4-(((R)-3-(dimethylamino)piperidin-1-yl)methyl)-N-((1S,1aS,6bS)-5-((7-oxo-5,6,7,8-tetrahydro-1,8-naphthyridin-4-yl)oxy)-1a,6b-dihydro-1H-cyclopropa[b]benzofuran-1-yl)-3-(trifluoromethyl)benzamide]
